Results from patent publication US12630565B2, “DNA-dependent protein kinase inhibitor” (DIZAL (JIANGSU) PHARMACEUTICAL CO., LTD., priority 2019, dated 2026).

Experiments:
[1] = target: Full length human DNAPK protein (Homo sapiens, UniProt P78527); test: DNA-PK enzymatic assay (TR-FRET); type: biochemical; settings: 10 μM ATP, 1.6 μM peptide substrate
Rat hepatocyte = test: Metabolic stability assay (rat hepatocyte Clint); type: in vitro ADME; settings: 1 μM compound, cryopreserved hepatocytes 1 million cells per mL
Description: Viability of cryopreserved hepatocytes was determined using trypan blue and the cell conc. was adjusted to […] with buffer. 1 μM compound (in Acetonitrile; 0.01% DMSO) was incubated with 250 μL of hepatocytecells (1 million cells per mL) in a 96 deep well plate. Reaction was stopped at different time points (0, 0.5, 5, 15, 30, 45, 60, 80, 100 and 120 min) by addition of 3 volumes of chilled acetonitrile to 20 μL of reaction mixture and centrifuged at 4° C. for 15 min. 40 μL of supernatant was diluted to 200 μL with pure water and analyzed using LC-MS/MS.
In vitro hepatocyte clearance was estimated based on determination of elimination half-life (T1/2) of compounds disappearance from their initial concentrations. Peak area ratios of each compound (test or control) to IS was calculated. Drug elimination rate constant k (min−1), T1/2 (min), and in vitro intrinsic clearance CLint (μL/min/E6) was calculated according to the following equations: […]
Where Chep (cells×μL^−1) is the cell concentration in the incubation system.

MDR1, BCRP = test: MDCKII-MDR1-BCRP efflux assay; type: in vitro ADME; settings: dog, pH 7.4, 5 μM compound, HBSS pH 7.4, read-out: MDCK-Mdr1-BCRP efflux ratio
Description: The apical-to-basolateral (A-B) and basolateral-to-apical (B-A) transport of compound in HBSS (25 mM HEPES, pH 7.4) was measured across MDCKII-MDR1-BCRP cell monolayers. Incubations were performed at approximately 37° C. for 120 min, with functionality of the test system being confirmed using 5 μM digoxin as a positive control substrate. Transport of 5 μM compound and control compound were determined by quantifying substrate concentration in the incubation medium of donor compartment at the beginning of the incubation period, and both donor and receiver compartments at the end of the incubation period. The data was used to calculate the apparent permeability (Papp). All incubations were performed in triplicate and integrity of the cell monolayers was confirmed using the marker Lucifer yellow.
The permeability coefficient Pexact (cm/s) was calculated using the equation: […]
The Pexact ratio was calculated using the equation: […]
The efflux ratio was calculated using the equation: […]
Where dCr/dt is the cumulative concentration of compound in the receiver chamber as a function of time (μM/s); Vr is the solution volume in the receiver chamber (0.1 mL on the apical side, 0.3 mL on the basolateral side); A is the surface area for the transport, i.e. 0.11 cm2 for the area of the monolayer; CO is the initial concentration in the donor chamber (μM).

[2] = Metabolic stability assay (human microsomal Clint); type: in vitro ADME; settings: human, pooled human liver microsomes, pH 7.4, 1 μM compound, 1 mg/mL microsomes, 1 mM NADPH, 37° C.
Description: 1 μM compound was incubated with 1 mg/mL of microsomes (Pooled HLM with 20 mg/ml protein cone) at 37° C. in 250 μL of buffer (100 mM phosphate buffer, pH-7.4) containing 1 mM NADPH solution. 20 μL of incubation mix was quenched with 5 volumes chilled acetonitrile at different time points 0, 0.5, 5, 10, 15, 20 and 30 min in a fresh 96 well plate. The quench plate was centrifuged at 4000 rpm for 15 min. 40 μL of supernatant was diluted to 200 μL with pure water and analyzed using LC-MS/MS.
In vitro intrinsic clearance of the drugs in the microsome CLint (μl/min/mg) was calculated in the similar manner as the CLint in the hepatocyte.

Compound | IC50 [1] [nM] | Rat hepatocyte CLint (μl/min/10^−6 cells) (Rat hepatocyte) | efflux ratio at 120 min, 5 μM (MDR1, BCRP) | microsomal CLint at 1 μM [2] [µL/min/mg]
[2H]C([2H])([2H])n1nc(C2CCOCC2)c2nc(Nc3cn4ncnc4cc3C)ncc21 [Example 10, 1-(methyl-d3)-N-(7-methyl-[1,2,4]triazolo[1,5-a]pyridin-6-yl)-3-(tetrahydro-2H-pyran-4-yl)-1H-pyrazolo[4,3-d]pyrimidin-5-amine] | 1.7 | 6.8 | 7.2 | 17.2
Cc1cc2nccn2cc1Nc1ncc2c(n1)c(C1=CCOCC1)nn2C [Example 6, 3-(3,6-dihydro-2H-pyran-4-yl)-1-methyl-N-(7-methylimidazo[1,2-a]pyridin-6-yl)-1H-pyrazolo[4,3-d]pyrimidin-5-amine] | 1.6 | 6.8 | 4.9 | 35.5
CO[C@H]1CC[C@H](n2nc(C)c3cnc(Nc4cn5ccnc5cc4C)nc32)CC1 [Example 26, 1-((1r,4r)-4-methoxycyclohexyl)-3-methyl-N-(7-methylimidazo[1,2-a]pyridin-6-yl)-1H-pyrazolo[3,4-d]pyrimidin-6-amine] | 3 | 13.6 | 4.2 | 134
Cc1cc2ncnn2cc1Nc1ncc2c(C)nn(C3CCCOCC3)c2n1 (single isomer, unassigned) [Example 33, 3-methyl-N-(7-methyl-[1,2,4]triazolo[1,5-a]pyridin-6-yl)-1-(oxepan-4-yl)-1H-pyrazolo[3,4-d]pyrimidin-6-amine] | 1.5 | 11.3 | 3 | 41.5
Cc1cc2ncnn2cc1Nc1ncc2c(n1)c([C@H]1CC[C@@H](OC(F)F)CC1)nn2C [Example 11, 3-((1s,4s)-4-(difluoromethoxy)cyclohexyl)-1-methyl-N-(7-methyl-[1,2,4]triazolo[1,5-a]pyridin-6-yl)-1H-pyrazolo[4,3-d]pyrimidin-5-amine] | 0.7 | 190.4 | 1.8 | > 300
Cc1cc2ncnn2cc1Nc1ncc2c(C)cn(C3CCOCC3)c2n1 [Example 15, 7-methyl-N-(5-methyl-7-(tetrahydro-2H-pyran-4-yl)-7H-pyrrolo[2,3-d]pyrimidin-2-yl)-[1,2,4]triazolo[1,5-a]pyridin-6-amine] | 35.2 | 14.6 | 0.8 | 69.6
Cc1cc2ncnn2cc1Nc1ncc2c(C)nn(C3CCN(C)CC3)c2n1 [Example 19, 3-methyl-N-(7-methyl-[1,2,4]triazolo[1,5-a]pyridin-6-yl)-1-(1-methylpiperidin-4-yl)-1H-pyrazolo[3,4-d]pyrimidin-6-amine] | 25.9 | 6.8 | 13.1 | 4.3
CO[C@H]1CC[C@@H](n2nc(C)c3cnc(Nc4cn5ncnc5cc4C)nc32)CC1 [Example 25, 1-((1s,4s)-4-methoxycyclohexyl)-3-methyl-N-(7-methyl-[1,2,4]triazolo[1,5-a]pyridin-6-yl)-1H-pyrazolo[3,4-d]pyrimidin-6-amine] | 1.8 | 17.7 | 1.3 | 209
Cc1cc2ncnn2cc1Nc1ncc2c(n1)c(C1CCOCC1)cn2C [Example 3, 7-methyl-N-(5-methyl-7-(tetrahydro-2H-pyran-4-yl)-5H-pyrrolo[3,2-d]pyrimidin-2-yl)-[1,2,4]triazolo[1,5-a]pyridin-6-amine] | 10.2 | 9.8 | 3.1 | 39.7
Cc1cc2ncnn2cc1Nc1ncc2c(C(F)(F)F)nn(C3CCOCC3)c2n1 [Example 17, N-(7-methyl-[1,2,4]triazolo[1,5-a]pyridin-6-yl)-1-(tetrahydro-2H-pyran-4-yl)-3-(trifluoromethyl)-1H-pyrazolo[3,4-d]pyrimidin-6-amine] | 5.2 | 7.2 | 1.5 | 54.7

The remaining lines, values ahead:

IC50 [1] [nM] | Rat hepatocyte CLint (μl/min/10^−6 cells) (Rat hepatocyte) | efflux ratio at 120 min, 5 μM (MDR1, BCRP) | microsomal CLint at 1 μM [2] [µL/min/mg] | Compound
4.5 | 5.5 | 0.7 | 20.2 | Cc1cc2ncnn2cc1Nc1ncc2c(C)nn(C(C)C)c2n1 [Example 59, 1-isopropyl-3-methyl-N-(7-methyl-[1,2,4]triazolo[1,5-a]pyridin-6-yl)-1H-pyrazolo[3,4-d]pyrimidin-6-amine]
36 | 5.3 | 2.4 | 5.5 | COCCn1nc(C)c2cnc(Nc3cn4ncnc4cc3C)nc21 [Example 63, 1-(2-methoxyethyl)-3-methyl-N-(7-methyl-[1,2,4]triazolo[1,5-a]pyridin-6-yl)-1H-pyrazolo[3,4-d]pyrimidin-6-amine]
1.9 | 17.2 | 2 | 89 | COC1CCC(n2nc(C)c3cnc(Nc4cn5ncnc5cc4C)nc32)C1 (single isomer, unassigned) [Example 108, 1-(3-methoxycyclopentyl)-3-methyl-N-(7-methyl-[1,2,4]triazolo[1,5-a]pyridin-6-yl)-1H-pyrazolo[3,4-d]pyrimidin-6-amine]
2 | 15.3 | 1.9 | 120 | Cc1cc2ncnn2cc1Nc1ncc2c(C)nn(CCCOC(F)(F)F)c2n1 [Example 66, 3-methyl-N-(7-methyl-[1,2,4]triazolo[1,5-a]pyridin-6-yl)-1-(3-(trifluoromethoxy)propyl)-1H-pyrazolo[3,4-d]pyrimidin-6-amine]
10.8 | 4.9 | 3.2 | 14.1 | Cc1cc2ncnn2cc1Nc1ncc2c(C)nn(CC3CCOC3)c2n1 (single isomer, unassigned) [Example 52, 3-methyl-N-(7-methyl-[1,2,4]triazolo[1,5-a]pyridin-6-yl)-1-((tetrahydrofuran-3-yl)methyl)-1H-pyrazolo[3,4-d]pyrimidin-6-amine]
8.8 | 6.3 | 3 | 13.6 | COC(C)Cn1nc(C)c2cnc(Nc3cn4ncnc4cc3C)nc21 (racemic) [Example 69, 1-(2-methoxypropyl)-3-methyl-N-(7-methyl-[1,2,4]triazolo[1,5-a]pyridin-6-yl)-1H-pyrazolo[3,4-d]pyrimidin-6-amine]
2.1 | 153.3 | 0.9 | 151 | Cc1cc2ncnn2cc1Nc1ncc2c(C)nn([C@H]3C[C@H](C)C3)c2n1 [Example 39, 3-methyl-N-(7-methyl-[1,2,4]triazolo[1,5-a]pyridin-6-yl)-1-((1r,3r)-3-methylcyclobutyl)-1H-pyrazolo[3,4-d]pyrimidin-6-amine]
7.5 | 34.2 | 4.8 | 19.5 | Cc1cc2ncnn2cc1Nc1ncc2c(C)nn(C3CC4(COC4)C3)c2n1 [Example 42, 3-methyl-N-(7-methyl-[1,2,4]triazolo[1,5-a]pyridin-6-yl)-1-(2-oxaspiro[3.3]heptan-6-yl)-1H-pyrazolo[3,4-d]pyrimidin-6-amine]
